# “Also recorded” adds a separate entry of the source. Structures can show the parent of a compound that is named as a salt.
# Assays:
# mice [1] = test: Position preference (CPP) experiment, three-room system; format: in vivo, Male C57BL/6J mice; details: 5 mg, 10 mg, 30 mg intragastric, 6 days training, residence time in white box within 15 min
# Experimental: (§1) Animals: Male C57BL/6J mice of 8-12 weeks old were randomly divided into groups, 10 mice in each group, with body weight of 18-22 g, fed at room temperature (22±1° C.), under humidity of (50±10)%, illumination time from 8:00 to20:00. The mice had free access to food and water, and adapted to the experimental environment for at least 2-3 days before the experiments. All experiments were conducted from 8:00 to 16:00.
# 1.2 CPP experiment: A three-room CPP system includes black and white boxes (25 cm × 25 cm × 30 cm) at left and right sides, separated by a middle box (10 cm × 25 cm × 30 cm). During the experiment, mice were put into the middle box and could freely move to the black and white boxes. A door with the size of 5 cm × 5 cm was arranged between the middle box and each of the black and white boxes. The experiment adopted a biased procedure, which had three stages of pre-test, training, and test stages. During the whole experiment, the environmental conditions such as light, color and smell in the boxes were guaranteed to be consistent.
# Pre-test stage: On days 1-3, the spacer plates between the boxes were removed, and all mice were put into the middle box after being injected with saline subcutaneously, allowing them to move freely in the boxes for 15 min, once a day for 3 consecutive days. The residence time of the mice in the black and white boxes was respectively recorded to determine the natural preference of the mice. The mice were trained with the non-natural preference box as the companion medicine box. […]
# Test stage: on day 10, the spacer plates were removed, and the mice were put into the middle box allowing to move freely. At the same time, the residence time of the mice in the white box within 15 min were recorded.
# Statistical analysis: Experimental data were expressed as X±SEM. […]
# Position preference was tested by a three-room system. […] After continuous training for 6 days, the test was carried out, and the residence times of the mice within 15 min in the white box were recorded. […]
# mice [2] = test: Behavioral sensitization experiment (spontaneous activity measurement); format: in vivo, Male C57BL/6J mice; details: 5 mg, 10 mg, 30 mg intragastric once a day for 7 days, 7 days withdrawal, challenge on day 15
# Experimental: as §1
# 1.1 Small animal spontaneous activity measurement: An animal spontaneous activity infrared analysis system consists of a spontaneous activity box, an infrared probe device and a data acquisition system. The size of the spontaneous activity box is 40 cm × 40 cm × 65 cm, with sound isolation and light isolation, and mounted with a ventilation device. The activity statuses of the animals were recorded by the infrared probe, and the numbers of spontaneous activities of the animals were calculated. In order to test the effect of drugs on spontaneous activities of mice, the mice were randomly divided into 4 groups with 10 mice in each group. The Groups included: vehicle, I5, C, D (5.0, 10.0, 30.0 mg/kg), mor (10 mg/kg). The mice were administrated intragastrically once a day in the morning for 7 consecutive days; after that, the drugs withdrew for 7 days (without any treatment). On the 15th day, mice in each group were given Veh and the drugs (5.0, 10.0, 30.0 mg/kg) by intragastric administration to stimulate. Spontaneous activity of the mice within 1 hour was measured immediately after administration at d1, d7 and d15.
# Statistical analysis: Experimental data were expressed as X±SEM. Graphpad software was used for statistical analysis, and t-test was used for comparison between two groups. One-way ANOVA analysis was used for comparison among multiple groups, and then LSD method was used for pairwise comparison.
# mice [3] = test: Forced swimming test (FST), immobility time; format: in vivo; details: for antidepressant effect: dose not given; for course of antidepressant efficacy within 7 days: 1 hour to 7 days
# Experimental: One hour before the forced swimming test (FST), the mice were transferred to the laboratory. The test was conducted under normal light condition and monitored by a digital camera. During the test, the mice were individually placed in transparent glass cylinders (28.5 cm in height, 14 cm in diameter) filled with 20 cm height of water (23±1° C.). On the first day, the mice were trained for 6 minutes and then removed from the cylinder. On the second day, the mice were administered saline, HNK, Compound I5, Compound C, and Compound D, and after different time periods, their immobility time was tested. During the last 4 minutes of the entire 6-minute swimming test, the static time was recorded through EthoVision XT (Noldus, Netherlands) of Noldus system. The static time was defined as passive floating, that is there was no other movement except the movements necessary to keep the animal’s head above the water. After every two to three tests, the water in the cylinders was replaced. After the swimming test, the mice were removed from the water and dried under an infrared lamp.
# The mice were given 1 mg (A), 10 mg (B) and 30 mg (C) of HNK and Compund I5 by intragastric administration, respectively, and their immobility time was measured after 1 hour and 7 days. The percentage of immobility time is expressed as mean ± SEM. *p<0.05, **p<0.01, compared to base test. Mice of each group was N=8. Saline: saline group; I5: Compound I5 treatment group; HNK: 2R,6R-hydroxynorketamine treatment group.
# [4] = Applicant's experimental studies on addiction of HNK (general statement); format: in vivo
# [5] = mice, 1 mg intragastric, measured after 1 hour and 7 days
SMILES,position preference effect on mice (mice [1]),behavioral sensitization effect on mice (mice [2]),"antidepressant effect (immobility time, forced swimming) (mice [3]; mice, 30 mg)",antidepressant effect (mice [3]; mice),position preference effect on mice (mice [1]; dihydrochloride),behavioral sensitization effect on mice (mice [2]; dihydrochloride),"antidepressant effect (immobility time, forced swimming) (mice [3]; [5])","antidepressant effect (immobility time, forced swimming) (mice [3]; mice, 10 mg intragastric)","course of antidepressant efficacy within 7 days (mice [3]; mice, 10 mg intragastric)","course of antidepressant efficacy within 7 days (mice [3]; mice, 30 mg intragastric)","antidepressant effect at the 7th day after administration (reduction in immobility time) (mice [3]; mice, compared with HNK-treated group, 10 mg and 30 mg groups)",addiction [4],duration of efficacy after administration (mice [3]; general statement)
CN[C@@]1(c2ccccc2Cl)CCC[C@@H](OC(=O)c2ccccc2)C1=O [Compound C],induced position preference,behavioral sensitizing effect; also recorded: behavioral sensitization effect,no antidepressant effect,no antidepressant effect,–,–,–,–,–,–,–,–,–
N[C@]1(c2ccccc2Cl)CCC[C@H](OC(=O)c2ccc(CN3CCOCC3)cc2)C1=O [Compound D],induced position preference,behavioral sensitizing effect; also recorded: behavioral sensitization effect,no antidepressant effect,no antidepressant effect,–,–,–,–,–,–,–,–,–
"CN(C)c1ccc(C(=O)O[C@@H]2CCC[C@@](N)(c3ccccc3Cl)C2=O)cc1 [Compound I5, (2R, 6R)-6-p-dimethylaminobenzoyloxydemethylketamine dihydrochloride]",–,–,had antidepressant effect,–,no position preference effect; also recorded: non-position preference effect,no behavioral sensitization effect; also recorded: non-sensitization effect,no antidepressant effect,had antidepressant effect,substantially did not decrease within 7 days,substantially did not decrease within 7 days,significant antidepressant effect,–,–
"N[C@@]1(c2ccccc2Cl)CCC[C@@H](O)C1=O [HNK, (2R,6R)-6-hydroxydemethylketamine, reference compound]",–,–,had antidepressant effect,–,–,–,no antidepressant effect,had antidepressant effect,"decreased rapidly within 7 days, and substantially had no effect on the 7th day","decayed rapidly within 7 days, and substantially had no effect on the 7th day",–,a certain degree of addiction,basically lost activity within one week
